Experimental data taken from patent US20240383910A1, “SMALL MOLECULE BTK DEGRADERS AND METHODS OF USE THEREOF” (Baylor College of Medicine, priority 2023, published 2024).
Values belong to the molecule of their own block, whether it stands above or below them.

Columns and labels:
[1] = system: Jeko-1 cells; assay: Alarma Blue cell viability assay, Jeko-1 cells; type: cell-based; conditions: 72 h
[2] = system: Rec-R cells; assay: Alarma Blue cell viability assay, Rec-R cells; type: cell-based; conditions: 72 h
[3] = target: T1, IKZF1-nLuc (Homo sapiens, UniProt Q13422+Q96SW2); assay: IKZF1-nLuc endpoint degradation assay in HEK-293T cells; type: cell-based; conditions: HEK-293T, read-out: IKZF1-nLuc Endpoint Dmax
T1 construct: Addgene (vector) HsCD00512327; pLenti6.2-ccdB-Nanoluc 87078; host or cells: HEK-293T17
Method: (§1) Panel a. […] Panel b. […] Panel c. […] Panel d-e. […] Panel g.
(§2) The nanoluc activity was determined using the furimazine substrate (Promega, Cat. No. N1110). Briefly, after 4 h incubation of indicated compounds, cells were directly lysed by addition of 100 μL of nanoluciferase detection solution, containing lysis buffer and furimazine (1/50 dilution). For the 24-hour treatment group, the old medium was replaced with 100 μL fresh opti-MEM, followed by the addition of equal volume of lysis buffer plus furimazine (1/50 dilution).

[4] = target: T1, IKZF1-nLuc; assay: IKZF1-nLuc degradation kinetics assay in HEK-293T cells; type: cell-based; conditions: HEK-293T, read-out: IKZF1-nLuc Degradation Kinetics Dmax
Text: as §1

[5] = target: T2, IKZF1 (Homo sapiens, UniProt Q13422+Q96SW2); assay: Western blotting for IKZF1 in Mino cells; type: cell-based; conditions: 24 h, Western blot, read-out: IKZF1-WB Endpoint Dmax
T2 construct: host or cells: Mino
Method: as §1
(§3) After treatment, whole cell lysates for immunoblotting were prepared by pelleting Mino cells at 4° C. and 200×g for 5 minutes. […] Imaging was performed using the ECL Prime chemiluminescent Western blot detection reagents (Kindle Biosciences, Cat. No. R1100) by visualization of the blots with an Imager (Kindle Biosciences, Cat. No. D1001). All Western blots were subsequently processed and quantified with Imager software ImageJ and protein level was normalized to the B-actin loading controls.

[6] = target: T3, IKZF3-nLuc (Homo sapiens, UniProt Q96SW2+Q9UKT9); assay: IKZF3-nLuc endpoint degradation assay in HEK-293T cells; type: cell-based; conditions: HEK-293T, read-out: IKZF3-nLuc Endpoint Dmax
T3 construct: Addgene (vector) HsCD00513042; pLenti6.2-ccdB-Nanoluc 87078; host or cells: HEK-293T17
Method: as §1, §2

[7] = target: T3, IKZF3-nLuc; assay: IKZF3-nLuc degradation kinetics assay in HEK-293T cells; type: cell-based; conditions: HEK-293T, read-out: IKZF3-nLuc Degradation Kinetics Dmax
Text: as §1

[8] = target: T4, IKZF3 (Homo sapiens, UniProt Q96SW2+Q9UKT9); assay: Western blotting for IKZF3 in Mino cells; type: cell-based; conditions: 24 h, Western blot, read-out: IKZF3-WB Endpoint Dmax
T4 construct: host or cells: Mino
Method: as §1, §3

[9] = system: Mino cells; assay: cells; conditions: Homo sapiens, 72 h, read-out: IC50, cell growth inhibition / cell viability
[10] = target: T5, GSPT1 (Homo sapiens, UniProt P15170+Q96SW2); assay: Western blotting for GSPT1 in Mino cells; type: cell-based; conditions: up to 1000 nM, 24 h, Western blot
T5 construct: host or cells: Mino
Method: as §1
Mino cells were seeded into the wells of six-well plates at the density of 5×10^5 cells per mL in 2 mL of complete RPMI-1640 culture medium. After overnight adaptation, cells were treated with serially diluted compounds (from 1,000-1.6 nM, 5-fold dilution) for 24 hours. After treatment, whole cell lysates for immunoblotting were prepared by pelleting Mino cells at 4° C. and 200×g for 5 minutes. The resulting cell pellets were washed once with ice-cold PBS and lysed in 1×RIPA lysis buffer (Alfa Aesar, Cat. No. J62524) supplemented with protease and phosphatase inhibitor cocktail (Thermo Fisher, Cat. No. 78430). Lysates were centrifuged at 15,000×g for 10 min at 4° C. and protein concentrations were assessed using BCA assay (Pierce, Cat. No. 23225). Same amounts of protein (30 μg) for each sample were loaded onto sodium dodecyl sulfate-polyacrylamide gel, separated by electrophoresis (Bio-Rad) at 120 V for 1.5 h and transferred to PVDF membrane using a Transblot Turbo system (Bio-Rad). […] All Western blots were subsequently processed and quantified with Imager software ImageJ and protein level was normalized to the B-actin loading controls.

[11] = system: Mino cells; conditions: Mino cells pretreated with PS-RC-Ctrl 2 and 10 μM for 2 h
[12] = target: T6, BTK (Homo sapiens, UniProt Q06187); assay: Western blotting for BTK in Mino cells; type: cell-based; design: host or cells: Mino; conditions: 24 h, Western blot; for BTK degradation (result in words): up to 1000 nM
Method: Mino cells were seeded into the wells of six-well plates at the density of 5×10^5 cells per mL in 2 mL of complete RPMI-1640 culture medium. After overnight adaptation, cells were treated with serially diluted compounds (from 1,000-1.6 nM, 5-fold dilution) for 24 hours. After treatment, whole cell lysates for immunoblotting were prepared by pelleting Mino cells at 4° C. and 200×g for 5 minutes. The resulting cell pellets were washed once with ice-cold PBS and lysed in 1×RIPA lysis buffer (Alfa Aesar, Cat. No. J62524) supplemented with protease and phosphatase inhibitor cocktail (Thermo Fisher, Cat. No. 78430). Lysates were centrifuged at 15,000×g for 10 min at 4° C. and protein concentrations were assessed using BCA assay (Pierce, Cat. No. 23225). Same amounts of protein (30 μg) for each sample were loaded onto sodium dodecyl sulfate-polyacrylamide gel, separated by electrophoresis (Bio-Rad) at 120 V for 1.5 h and transferred to PVDF membrane using a Transblot Turbo system (Bio-Rad). After blocking for 1 h at room temperature in 1% BSA-TBST, the membranes were immunoblotted with the specified primary antibodies at the dilution of 1:1000 in TBST (Cell Signaling Technology: anti-BTK Cat. No. 8547, anti-IKZF1 Cat. No. 14859, anti-IKZF3 Cat. No. 15103, anti-β-actin Cat. No. 4570, Proteintech: anti-GSPT1, Cat. No. 10763-1-AP) overnight at 4° C. and the HRP-conjugated secondary antibodies (Cell Signaling, Cat. No. 7074, 1:1000 in TBST) for 1 h at room temperature. Imaging was performed using the ECL Prime chemiluminescent Western blot detection reagents (Kindle Biosciences, Cat. No. R1100) by visualization of the blots with an Imager (Kindle Biosciences, Cat. No. D1001). All Western blots were subsequently processed and quantified with Imager software ImageJ and protein level was normalized to the B-actin loading controls.
Target sequence in this assay (Q06187 whole entry): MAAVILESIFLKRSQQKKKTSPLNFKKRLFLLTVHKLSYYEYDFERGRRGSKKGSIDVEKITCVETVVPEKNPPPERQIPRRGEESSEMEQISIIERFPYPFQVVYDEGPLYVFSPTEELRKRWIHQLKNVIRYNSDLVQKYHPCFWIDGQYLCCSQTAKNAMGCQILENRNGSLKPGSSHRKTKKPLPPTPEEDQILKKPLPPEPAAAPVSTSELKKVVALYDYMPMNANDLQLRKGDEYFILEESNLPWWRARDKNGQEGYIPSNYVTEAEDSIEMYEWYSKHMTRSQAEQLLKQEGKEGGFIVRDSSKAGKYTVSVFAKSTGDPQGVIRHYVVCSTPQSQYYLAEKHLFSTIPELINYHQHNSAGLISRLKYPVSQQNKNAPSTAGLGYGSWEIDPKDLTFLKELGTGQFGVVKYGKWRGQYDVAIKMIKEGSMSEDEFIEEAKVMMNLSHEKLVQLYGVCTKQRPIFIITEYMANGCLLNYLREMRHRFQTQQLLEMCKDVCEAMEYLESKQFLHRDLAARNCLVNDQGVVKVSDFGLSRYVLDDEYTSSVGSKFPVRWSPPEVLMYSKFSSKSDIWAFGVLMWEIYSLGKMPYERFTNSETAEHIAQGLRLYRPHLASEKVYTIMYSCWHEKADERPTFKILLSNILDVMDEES

[13] = target: T6, BTK; assay: TR-FRET saturation binding assay of the BTK tracer
Method: To measure the binding affinities between PROTACs and BTK, a time-resolved fluorescence resonance energy transfer (TR-FRET) competition binding assay was developed. A BTK tracer was synthesized by conjugating an ibrutinib-based reversible noncovalent binder with the BODIPY-FL dye (FIG. 1). […] In the presence of the BTK tracer, competition assays were performed to measure the binding affinities between BTK and its inhibitors and PROTACs. […] The very weak BTK binding affinities for PS-RC-1, PS-RC-2, PS-RC-3 and PS-RC-4 explain their minimal BTK degradation effects in cells and further support that the observed growth inhibitory effect of PS-RC-1 in Mino cells is unrelated to the BTK pathway.
Target sequence in this assay (Q06187 whole entry, species assumed): as the sequence (Q06187 whole entry) above

[14] = target: T7, BTK-nLuc fusion protein (Homo sapiens, UniProt Q06187); assay: BTK-nLuc endpoint degradation assay in HEK-293T cells; type: cell-based; conditions: HEK-293T cells stably expressing BTK-nLuc, 24 h
T7 construct: Addgene (vector) HsCD00514411; pLenti6.2-ccdB-Nanoluc 87078; host or cells: HEK-293T17
Method: (§4) DD-03-171 is a known BTK degrader and used as a positive control. Panel f: HEK-293T cells stably expressing a BTK-nLuc fusion protein were treated with indicated compounds (same as in a-e) for 24 h. The BTK degradation was determined by evaluating luminescence signals of NanoLuc.
as §2

[15] = target: T8, BTK-nLuc fusion protein (Homo sapiens, UniProt Q06187+Q96SW2); assay: as above; type: cell-based; conditions: HEK-293T cells stably expressing BTK-nLuc, 24 h
T8 construct: Addgene (vector) HsCD00514411; pLenti6.2-ccdB-Nanoluc 87078; host or cells: HEK-293T17
Method: as §4, §2

T1 sequence (Q13422 whole entry): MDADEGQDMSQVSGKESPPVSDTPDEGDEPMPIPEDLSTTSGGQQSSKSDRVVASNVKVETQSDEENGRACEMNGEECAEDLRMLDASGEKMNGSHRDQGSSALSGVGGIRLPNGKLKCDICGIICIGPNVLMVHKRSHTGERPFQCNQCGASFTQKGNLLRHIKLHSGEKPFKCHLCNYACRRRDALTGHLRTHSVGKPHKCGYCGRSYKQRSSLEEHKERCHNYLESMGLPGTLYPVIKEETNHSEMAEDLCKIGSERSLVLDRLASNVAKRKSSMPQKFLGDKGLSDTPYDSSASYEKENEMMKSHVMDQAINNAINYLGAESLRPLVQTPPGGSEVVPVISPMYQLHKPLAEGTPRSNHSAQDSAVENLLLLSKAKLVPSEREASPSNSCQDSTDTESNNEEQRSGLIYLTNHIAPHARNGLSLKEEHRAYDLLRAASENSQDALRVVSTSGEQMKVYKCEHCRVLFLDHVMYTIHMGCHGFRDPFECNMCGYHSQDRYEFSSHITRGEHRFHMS
T1 sequence (Q96SW2 whole entry): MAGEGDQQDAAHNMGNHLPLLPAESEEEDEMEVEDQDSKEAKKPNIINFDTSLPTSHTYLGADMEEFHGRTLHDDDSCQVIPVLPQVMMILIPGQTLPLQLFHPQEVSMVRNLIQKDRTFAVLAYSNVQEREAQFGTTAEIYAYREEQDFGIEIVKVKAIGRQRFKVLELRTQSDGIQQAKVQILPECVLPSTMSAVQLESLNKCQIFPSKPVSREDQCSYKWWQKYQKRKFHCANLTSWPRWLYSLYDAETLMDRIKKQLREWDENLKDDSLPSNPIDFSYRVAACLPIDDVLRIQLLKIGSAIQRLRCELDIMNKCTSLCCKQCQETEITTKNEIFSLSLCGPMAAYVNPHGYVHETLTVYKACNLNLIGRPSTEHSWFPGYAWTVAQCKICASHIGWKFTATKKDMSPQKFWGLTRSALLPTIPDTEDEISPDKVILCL
T1 sequence (Q16531 whole entry partner): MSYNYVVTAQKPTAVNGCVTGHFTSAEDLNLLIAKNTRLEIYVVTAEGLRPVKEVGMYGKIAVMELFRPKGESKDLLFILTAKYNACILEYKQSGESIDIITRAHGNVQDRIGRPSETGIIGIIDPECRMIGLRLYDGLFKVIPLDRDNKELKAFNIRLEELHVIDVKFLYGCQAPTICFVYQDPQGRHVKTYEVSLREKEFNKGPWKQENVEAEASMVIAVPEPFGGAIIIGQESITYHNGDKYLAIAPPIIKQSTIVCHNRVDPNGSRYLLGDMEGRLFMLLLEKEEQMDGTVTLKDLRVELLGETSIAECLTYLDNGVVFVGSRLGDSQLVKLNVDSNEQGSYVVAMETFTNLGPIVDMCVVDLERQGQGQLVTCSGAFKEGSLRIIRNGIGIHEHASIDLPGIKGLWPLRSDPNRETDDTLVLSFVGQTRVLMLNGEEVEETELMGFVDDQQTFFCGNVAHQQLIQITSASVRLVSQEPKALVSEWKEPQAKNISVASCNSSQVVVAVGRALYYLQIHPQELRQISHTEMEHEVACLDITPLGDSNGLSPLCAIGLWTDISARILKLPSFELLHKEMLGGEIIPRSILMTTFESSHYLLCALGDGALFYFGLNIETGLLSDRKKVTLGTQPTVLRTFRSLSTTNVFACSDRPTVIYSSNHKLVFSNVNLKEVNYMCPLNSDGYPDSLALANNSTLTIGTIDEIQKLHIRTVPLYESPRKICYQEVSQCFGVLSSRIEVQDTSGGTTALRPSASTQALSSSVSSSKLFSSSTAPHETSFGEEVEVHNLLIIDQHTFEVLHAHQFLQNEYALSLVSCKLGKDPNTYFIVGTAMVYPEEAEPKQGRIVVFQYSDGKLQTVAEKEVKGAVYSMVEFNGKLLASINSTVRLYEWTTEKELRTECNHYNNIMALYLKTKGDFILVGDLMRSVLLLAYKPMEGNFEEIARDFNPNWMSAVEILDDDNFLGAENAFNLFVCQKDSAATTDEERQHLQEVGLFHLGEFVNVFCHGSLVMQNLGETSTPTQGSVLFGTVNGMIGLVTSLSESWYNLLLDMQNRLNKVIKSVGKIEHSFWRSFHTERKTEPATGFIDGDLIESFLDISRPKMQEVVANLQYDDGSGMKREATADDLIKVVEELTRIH
T3 sequence (Q9UKT9 whole entry): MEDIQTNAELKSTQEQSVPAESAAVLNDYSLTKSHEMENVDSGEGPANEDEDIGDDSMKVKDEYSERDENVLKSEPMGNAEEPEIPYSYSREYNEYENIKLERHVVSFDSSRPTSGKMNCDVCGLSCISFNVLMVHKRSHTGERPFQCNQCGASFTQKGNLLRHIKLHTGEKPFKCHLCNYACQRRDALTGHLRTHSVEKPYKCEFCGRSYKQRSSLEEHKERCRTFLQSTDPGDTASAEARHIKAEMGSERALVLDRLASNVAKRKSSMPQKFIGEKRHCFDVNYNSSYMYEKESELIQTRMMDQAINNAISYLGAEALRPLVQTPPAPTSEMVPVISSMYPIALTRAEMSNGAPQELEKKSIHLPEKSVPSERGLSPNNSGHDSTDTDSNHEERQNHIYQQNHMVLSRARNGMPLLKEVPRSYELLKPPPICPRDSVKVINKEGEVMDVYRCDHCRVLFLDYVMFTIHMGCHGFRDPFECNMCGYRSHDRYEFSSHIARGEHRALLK
T3 sequence (Q96SW2 whole entry): as the sequence (Q96SW2 whole entry) above
T3 sequence (Q16531 whole entry partner): as the sequence (Q16531 whole entry partner) above
T8 sequence (Q06187 whole entry, the tested form may be a part): as the sequence (Q06187 whole entry) above
T8 sequence (Q96SW2 whole entry, the tested form may be a part): as the sequence (Q96SW2 whole entry) above
T8 sequence (Q16531 whole entry partner, the tested form may be a part): as the sequence (Q16531 whole entry partner) above
T7 sequence (Q06187 whole entry, the tested form may be a part): as the sequence (Q06187 whole entry) above
T7 sequence (Q96SW2 whole entry, further chain, the tested form may be a part): as the sequence (Q96SW2 whole entry) above
T7 sequence (Q16531 whole entry partner, the tested form may be a part): as the sequence (Q16531 whole entry partner) above
T2 sequence (Q13422 whole entry): as the sequence (Q13422 whole entry) above
T2 sequence (Q96SW2 whole entry): as the sequence (Q96SW2 whole entry) above
T2 sequence (Q16531 whole entry partner): as the sequence (Q16531 whole entry partner) above
T4 sequence (Q9UKT9 whole entry): as the sequence (Q9UKT9 whole entry) above
T4 sequence (Q96SW2 whole entry): as the sequence (Q96SW2 whole entry) above
T4 sequence (Q16531 whole entry partner): as the sequence (Q16531 whole entry partner) above
T5 sequence (P15170 whole entry): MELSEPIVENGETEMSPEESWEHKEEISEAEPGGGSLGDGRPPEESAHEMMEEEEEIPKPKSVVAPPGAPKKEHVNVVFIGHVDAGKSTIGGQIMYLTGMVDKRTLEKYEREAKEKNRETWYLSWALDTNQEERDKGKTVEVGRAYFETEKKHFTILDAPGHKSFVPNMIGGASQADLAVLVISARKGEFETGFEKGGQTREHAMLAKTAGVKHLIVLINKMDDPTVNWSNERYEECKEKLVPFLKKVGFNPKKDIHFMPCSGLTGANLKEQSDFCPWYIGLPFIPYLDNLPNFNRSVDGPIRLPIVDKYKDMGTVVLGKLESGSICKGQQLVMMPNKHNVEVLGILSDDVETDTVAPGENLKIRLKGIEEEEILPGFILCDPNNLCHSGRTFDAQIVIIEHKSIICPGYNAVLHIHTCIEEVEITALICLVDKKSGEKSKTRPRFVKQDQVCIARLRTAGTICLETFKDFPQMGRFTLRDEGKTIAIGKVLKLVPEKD
T5 sequence (Q96SW2 whole entry): as the sequence (Q96SW2 whole entry) above
T5 sequence (Q16531 whole entry partner): as the sequence (Q16531 whole entry partner) above

Compound: Nc1cccc2c1C(=O)N(C1CCC(=O)NC1=O)C2=O (stereo not shown) [Pomalidomide, reference compound]
- response of cell growth to compound [1]: only Mino cells are responsive
- response of cell growth to compound [2]: only Mino cells are responsive
- Dmax [3]: 90%
- Dmax at 0.04 µM [4]: 53%
- Dmax at 0.2 µM [4]: 80%
- Dmax [5]: 96%
- Dmax [6]: 94%
- Dmax at 0.04 µM [7]: 52%
- Dmax at 0.2 µM [7]: 64%
- Dmax [8]: 96%
- IC50 [9]: 329 nM

Compound: CC(C)(C)/C=C(\C#N)C(=O)Nc1cccc(Oc2nc(Nc3ccc(N4CCN(C(=O)CNc5cccc6c5C(=O)N(C5CCC(=O)NC5=O)C6=O)CC4)cc3)nc3ccoc23)c1 (stereo not shown) [PS-RC-1, (E)-2-cyano-N-(3-((2-((4-(4-((2-(2,6-dioxopiperidin-3-yl)-1,3-dioxoisoindolin-4-yl)glycyl)piperazin-1-yl)phenyl)amino)furo[3,2-d]pyrimidin-4-yl)oxy)phenyl)-4,4-dimethylpent-2-enamide]
- response of cell growth to compound [1]: poorly respond
- response of cell growth to compound [2]: poorly respond
- GSPT1 degradation (result in words) [10]: does not degrade GSPT1
- IC50 shift upon PS-RC-Ctrl pre-treatment [11]: An appreciable IC50 shift was not observed
- BTK degradation (result in words) [12]: none of the tested PROTACs induce appreciable BTK degradation

Compound: CC1=CC(C)=[N+]2C1=Cc1ccc(CCC(=O)NCCCN(C)CCCC(=O)N3CCC[C@@H](n4nc(-c5ccc(Oc6ccccc6)cc5)c5c(N)ncnc54)C3)n1[B-]2(F)F [BTK tracer]
- Kd [13]: 155 nM

- BTK-nLuc Dmax [14]: 96%
- DC50 [15]: 25.9 nM
- BTK WB Dmax [12]: 99%
- DC50 ([12]; read-out: BTK WB DC50): 0.9 nM
- BTK degradation (result in words) [12]: potently induces BTK degradation
Compound: Cc1c(NC(=O)c2ccc(C(C)(C)C)cc2)cccc1-c1cn(C)c(=O)c(Nc2ccc(C(=O)N3CCN(CCCCCCNC(=O)CNc4cccc5c4C(=O)N(C4CCC(=O)NC4=O)C5=O)CC3)cc2)n1 (stereo not shown) [DD-03-171, reference compound]
